Test results: ChEMBL document CHEMBL2401728, “An unexpected Dimroth rearrangement leading to annelated thieno[3,2-d][1,2,3]triazolo[1,5-a]pyrimidines with potent antitumor activity” (Eur J Med Chem, 2013)

Tests used:
Format in all cases: functional
UACC-257 [1] = assay: Cytotoxicity against human UACC257 cells assessed as cellular growth at 0.01 uM after 48 hrs by SRB assay relative to control
Malme-3M = assay: Cytotoxicity against human MALME-3M cells assessed as cellular growth at 0.01 uM after 48 hrs by SRB assay relative to control
KM12 = assay: Cytotoxicity against human KM12 cells assessed as cellular growth at 0.01 uM after 48 hrs by SRB assay relative to control
RXF 393 = assay: Cytotoxicity against human RXF393 cells assessed as cellular growth at 100 uM after 48 hrs by SRB assay relative to control
ACHN = assay: Cytotoxicity against human ACHN cells assessed as cellular growth at 100 uM after 48 hrs by SRB assay relative to control
786-0 = assay: Cytotoxicity against human 786-0 cells assessed as cellular growth at 100 uM after 48 hrs by SRB assay relative to control
SK-OV-3 [2] = assay: Cytotoxicity against human SKOV3 cells assessed as cellular growth at 100 uM after 48 hrs by SRB assay relative to control
SNB-75 [3] = assay: Cytotoxicity against human SNB75 cells assessed as cellular growth at 100 uM after 48 hrs by SRB assay relative to control
HOP-62 [4] = assay: Cytotoxicity against human HOP62 cells assessed as cellular growth at 100 uM after 48 hrs by SRB assay relative to control
SR = assay: Cytotoxicity against human SR cells assessed as cellular growth at 100 uM after 48 hrs by SRB assay relative to control
K562 [5] = assay: Cytotoxicity against human K562 cells assessed as cellular growth at 100 uM after 48 hrs by SRB assay relative to control
Hs-578T = assay: Cytotoxicity against human Hs578T cells assessed as cellular growth at 100 uM after 48 hrs by SRB assay relative to control
MCF7 = assay: Cytotoxicity against human MCF7 cells assessed as cellular growth at 1 uM after 48 hrs by SRB assay relative to control
TK-10 = assay: Cytotoxicity against human TK10 cells assessed as cellular growth at 1 uM after 48 hrs by SRB assay relative to control
SN12C = assay: Cytotoxicity against human SN12C cells assessed as cellular growth at 1 uM after 48 hrs by SRB assay relative to control
HCT-116 = assay: Cytotoxicity against human HCT116 cells assessed as cellular growth at 1 uM after 48 hrs by SRB assay relative to control
UO-31 [6] = assay: Cytotoxicity against human UO31 cells after 48 hrs by SRB assay; details: UO-31, 48 h
A498 = assay: Cytotoxicity against human A498 cells after 48 hrs by SRB assay; details: A498, 48 h
UACC-257 [7] = assay: Cytotoxicity against human UACC257 cells after 48 hrs by SRB assay; details: UACC-257, 48 h
SNB-19 = assay: Cytotoxicity against human SNB19 cells after 48 hrs by SRB assay; details: SNB-19, 48 h
SNB-75 [8] = assay: Cytotoxicity against human SNB75 cells after 48 hrs by SRB assay; details: SNB-75, 48 h
SW-620 = assay: Cytotoxicity against human SW620 cells after 48 hrs by SRB assay; details: SW-620, 48 h
NCI-H522 = assay: Cytotoxicity against human NCI-H522 cells after 48 hrs by SRB assay; details: NCI-H522, 48 h
HOP-62 [9] = assay: Cytotoxicity against human HOP62 cells after 48 hrs by SRB assay; details: HOP-62, 48 h
K562 [10] = assay: Cytotoxicity against human K562 cells after 48 hrs by SRB assay; details: K562, 48 h
HL-60(TB) = assay: Cytotoxicity against human HL-60(TB) cells after 48 hrs by SRB assay; details: HL-60, 48 h
UO-31 [11] = assay: Cytotoxicity against human UO31 cells assessed as cellular growth at 0.1 uM after 48 hrs by SRB assay relative to control
SK-OV-3 [12] = assay: Cytotoxicity against human SKOV3 cells assessed as cellular growth at 0.1 uM after 48 hrs by SRB assay relative to control
OVCAR-8 = assay: Cytotoxicity against human OVCAR8 cells assessed as cellular growth at 0.1 uM after 48 hrs by SRB assay relative to control
UACC-62 = assay: Cytotoxicity against human UACC62 cells assessed as cellular growth at 0.1 uM after 48 hrs by SRB assay relative to control
UACC-257 [13] = assay: Cytotoxicity against human UACC257 cells assessed as cellular growth at 0.1 uM after 48 hrs by SRB assay relative to control
U-251 = assay: Cytotoxicity against human U251 cells assessed as cellular growth at 0.1 uM after 48 hrs by SRB assay relative to control
MDA-MB-468 = assay: Cytotoxicity against human MDA-MB-468 cells assessed as cellular growth at 0.01 uM after 48 hrs by SRB assay relative to control
[14] = read-out: LC50 (the source's name)
[15] = read-out: pLC50 (the source's name) (converted)

CN1CCN(CCCn2c3c(sc4ncccc43)c(=O)n3nnc(-c4ccccc4)c23)CC1
Activity (UACC-257 [1]): 94%
Activity (Malme-3M): 83%
Activity (KM12): 101%
Activity (RXF 393): -83%
Activity (ACHN): -80%
Activity (786-0): -58%
Activity (SK-OV-3 [2]): -95%
Activity (SNB-75 [3]): -94%
Activity (HOP-62 [4]): -81%
Activity (SR): -42%
Activity (K562 [5]): -29%
Activity (Hs-578T): -43%
Activity (MCF7): 82%
Activity (TK-10): 119%
Activity (SN12C): 87%
Activity (HCT-116): 88%
GI50 (UO-31 [6]; read-out: GI50): 1.03 µM
CC50 (UO-31 [6]; [14]): 5.94 µM
TGI (UO-31 [6]; read-out: TGI): 2.47 µM
GI50 (UO-31 [6]; read-out: pGI50 (converted)): 1.02 µM
CC50 (UO-31 [6]; [15]): 5.89 µM
TGI (UO-31 [6]; read-out: pTGI (converted)): 2.45 µM
GI50 (A498; read-out: GI50): 11.2 µM
CC50 (A498; [14]): 52.3 µM
TGI (A498; read-out: TGI): 24.2 µM
GI50 (A498; read-out: pGI50 (converted)): 11.2 µM
CC50 (A498; [15]): 52.5 µM
TGI (A498; read-out: pTGI (converted)): 24 µM
GI50 (UACC-257 [7]; read-out: GI50): 1.81 µM
CC50 (UACC-257 [7]; [14]): 6.3 µM
TGI (UACC-257 [7]; read-out: TGI): 3.37 µM
GI50 (UACC-257 [7]; read-out: pGI50 (converted)): 1.82 µM
CC50 (UACC-257 [7]; [15]): 6.31 µM
TGI (UACC-257 [7]; read-out: pTGI (converted)): 3.39 µM
GI50 (SNB-19; read-out: GI50): 2.5 µM
CC50 (SNB-19; [14]): > 100 µM
TGI (SNB-19; read-out: TGI): 5.62 µM
GI50 (SNB-19; read-out: pGI50 (converted)): 2.51 µM
CC50 (SNB-19; [15]): > 100 µM
TGI (SNB-19; read-out: pTGI (converted)): 5.62 µM
GI50 (SNB-75 [8]; read-out: GI50): 7.71 µM
CC50 (SNB-75 [8]; [14]): 48.8 µM
TGI (SNB-75 [8]; read-out: TGI): 21.7 µM
GI50 (SNB-75 [8]; read-out: pGI50 (converted)): 7.76 µM
CC50 (SNB-75 [8]; [15]): 49 µM
TGI (SNB-75 [8]; read-out: pTGI (converted)): 21.9 µM
GI50 (SW-620; read-out: GI50): 1.68 µM
CC50 (SW-620; [14]): 8.1 µM
TGI (SW-620; read-out: TGI): 3.69 µM
GI50 (SW-620; read-out: pGI50 (converted)): 1.7 µM
CC50 (SW-620; [15]): 8.13 µM
TGI (SW-620; read-out: pTGI (converted)): 3.72 µM
GI50 (NCI-H522; read-out: GI50): 1.92 µM
TGI (NCI-H522; read-out: TGI): 3.7 µM
GI50 (NCI-H522; read-out: pGI50 (converted)): 1.91 µM
TGI (NCI-H522; read-out: pTGI (converted)): 3.72 µM
GI50 (HOP-62 [9]; read-out: GI50): 1.78 µM
CC50 (HOP-62 [9]; [14]): 6.11 µM
TGI (HOP-62 [9]; read-out: TGI): 3.3 µM
GI50 (HOP-62 [9]; read-out: pGI50 (converted)): 1.78 µM
CC50 (HOP-62 [9]; [15]): 6.17 µM
TGI (HOP-62 [9]; read-out: pTGI (converted)): 3.31 µM
GI50 (K562 [10]; read-out: GI50): 1.91 µM
CC50 (K562 [10]; [14]): > 100 µM
TGI (K562 [10]; read-out: TGI): 4.74 µM
GI50 (K562 [10]; read-out: pGI50 (converted)): 1.91 µM
CC50 (K562 [10]; [15]): > 100 µM
TGI (K562 [10]; read-out: pTGI (converted)): 4.79 µM
GI50 (HL-60(TB); read-out: GI50): 1.86 µM
CC50 (HL-60(TB); [14]): 9.05 µM
TGI (HL-60(TB); read-out: TGI): 4.1 µM
GI50 (HL-60(TB); read-out: pGI50 (converted)): 1.86 µM
CC50 (HL-60(TB); [15]): 9.12 µM
TGI (HL-60(TB); read-out: pTGI (converted)): 4.07 µM
Activity (UO-31 [11]): 53%
Activity (SK-OV-3 [12]): 94%
Activity (OVCAR-8): 94%
Activity (UACC-62): 79%
Activity (UACC-257 [13]): 99%
Activity (U-251): 100%
Activity (MDA-MB-468): 94%
